In ChEMBL document CHEMBL1201862, “PubChem BioAssay data set” (2004):
Structures can show the parent of a compound that is named as a salt.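 Test compounds were applied to cells in 96-well plates for 48 hours at 5 doses. Here, GI50 denotes the concentration required for 50% inhibition of growth.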 The source made the active and inactive calls. Cut-off read from the data, not from the text of the source: active = GI50 up to about 1.1 µM and inactive = higher.

How the values were obtained:
Assay in all cases: NCI anticancer screen, dose series, 48 h
UO-31 = tested on: UO-31
OVCAR-5 = tested on: OVCAR-5
MCF7 = tested on: MCF7
RPMI-8226 = tested on: RPMI-8226
MOLT-4 = tested on: MOLT-4
CAKI-1 = tested on: CAKI-1
NCI-H460 = tested on: NCI-H460
HCC 2998 = tested on: HCC 2998
HL-60 = tested on: HL-60
A549 = tested on: A549
NCI-H23 = tested on: NCI-H23
CCRF-CEM = tested on: CCRF-CEM
T47D = tested on: T47D
SN12C = tested on: SN12C
ACHN = tested on: ACHN
EKVX = tested on: EKVX
Hs-578T = tested on: Hs-578T
KM12 = tested on: KM12
MDA-N = tested on: MDA-N
786-0 = tested on: 786-0

Measured: GI50

Oc1ccc(Cn2c(-c3ccc(O)cc3)nc3ccccc32)cc1
inactive: UO-31 > 100 µM | OVCAR-5 > 100 µM | MCF7 > 100 µM | RPMI-8226 > 100 µM | MOLT-4 > 100 µM | CAKI-1 > 100 µM | NCI-H460 > 100 µM | HCC 2998 > 100 µM | HL-60 > 31.6 µM | A549 > 100 µM | NCI-H23 > 100 µM | CCRF-CEM > 100 µM | T47D > 100 µM | SN12C > 100 µM | ACHN > 100 µM | EKVX > 100 µM | Hs-578T > 100 µM | KM12 > 100 µM | MDA-N > 100 µM | 786-0 > 100 µM

COc1c(O)c(OC)c2oc(-c3ccc(O)cc3)c(OC)c(=O)c2c1O
inactive: UO-31 34.7 µM | OVCAR-5 > 100 µM | MCF7 41.7 µM | RPMI-8226 56.9 µM | MOLT-4 57 µM | CAKI-1 27.8 µM | NCI-H460 45.7 µM | HCC 2998 32 µM | HL-60 > 100 µM | A549 44.2 µM | NCI-H23 30.8 µM | CCRF-CEM 37.5 µM | T47D 10.2 µM | SN12C 70.6 µM | ACHN 33.6 µM | EKVX 97.5 µM | Hs-578T 18.4 µM | KM12 88.5 µM | MDA-N 79.4 µM | 786-0 17.8 µM

O=[N+]([O-])C(C=C(n1nnc2ccccc21)n1nnc2ccccc21)=C(n1nnc2ccccc21)n1nnc2ccccc21
inactive: UO-31 22.1 µM | OVCAR-5 > 100 µM | MCF7 > 100 µM | RPMI-8226 44.6 µM | MOLT-4 26.2 µM | CAKI-1 > 100 µM | NCI-H460 > 100 µM | HCC 2998 > 100 µM | HL-60 41 µM | A549 > 100 µM | NCI-H23 > 100 µM | CCRF-CEM 25 µM | T47D > 100 µM | SN12C > 100 µM | ACHN > 100 µM | EKVX > 100 µM | Hs-578T 58.5 µM | KM12 > 100 µM | MDA-N > 100 µM | 786-0 > 100 µM

CCOC(=O)CNC1=NNS(=O)(=O)c2ccccc21
inactive: UO-31 > 100 µM | OVCAR-5 > 100 µM | MCF7 > 100 µM | RPMI-8226 > 100 µM | MOLT-4 54.1 µM | CAKI-1 > 100 µM | NCI-H460 32.6 µM | HCC 2998 > 100 µM | HL-60 66.5 µM | A549 > 100 µM | NCI-H23 > 100 µM | CCRF-CEM 59.8 µM | T47D > 100 µM | SN12C > 100 µM | ACHN > 100 µM | EKVX > 100 µM | Hs-578T > 100 µM | KM12 > 100 µM | MDA-N > 100 µM | 786-0 > 100 µM

O=C1CSC(c2ccc([N+](=O)[O-])cc2)N1c1ccc(-n2c(-c3ccccc3)nc3ccccc3c2=O)cc1 (stereo not given)
inactive: UO-31 2.56 µM | OVCAR-5 > 10 µM | MCF7 73.5 µM | RPMI-8226 > 100 µM | MOLT-4 29.5 µM | CAKI-1 64.6 µM | NCI-H460 > 100 µM | HCC 2998 41 µM | HL-60 > 100 µM | A549 > 100 µM | NCI-H23 > 100 µM | CCRF-CEM > 100 µM | T47D 22.5 µM | SN12C > 100 µM | ACHN 77.8 µM | EKVX > 100 µM | Hs-578T > 100 µM | KM12 31.7 µM | MDA-N > 100 µM | 786-0 > 100 µM

CC(=O)N(C)c1ccc(Nc2cc(C)nc3ccc4nc[nH]c4c23)cc1 [ACODAZOLE HYDROCHLORIDE]
inactive: UO-31 12.2 µM | OVCAR-5 12.1 µM | MCF7 3.66 µM | RPMI-8226 8.07 µM | MOLT-4 1.72 µM | CAKI-1 5.04 µM | NCI-H460 2.59 µM | HCC 2998 10.3 µM | HL-60 7.03 µM | A549 7.59 µM | NCI-H23 10.2 µM | CCRF-CEM 3.01 µM | T47D 6.79 µM | SN12C 7.21 µM | ACHN 4.5 µM | EKVX 18.7 µM | Hs-578T 9.14 µM | KM12 7.96 µM | MDA-N 10.5 µM | 786-0 4.81 µM

CC1=COC2=C(C)C(=O)C(=O)c3c(C)ccc1c32 [MANSONONE F]
inactive: UO-31 14.7 µM | OVCAR-5 18.2 µM | MCF7 2.69 µM | RPMI-8226 1.42 µM | MOLT-4 2.56 µM | CAKI-1 20.3 µM | NCI-H460 2.18 µM | HCC 2998 6.27 µM | HL-60 2.1 µM | A549 2.92 µM | NCI-H23 2.84 µM | CCRF-CEM 2.98 µM | T47D 8.24 µM | SN12C 3.71 µM | ACHN 8.3 µM | EKVX 6.92 µM | Hs-578T 17.7 µM | KM12 3.93 µM | MDA-N 1.78 µM | 786-0 4.1 µM

COc1cc2oc(=O)ccc2cc1CC=C(C)C [SUBEROSIN]
inactive: UO-31 21.9 µM | OVCAR-5 72.6 µM | MCF7 32.4 µM | RPMI-8226 19.5 µM | MOLT-4 28.8 µM | CAKI-1 40.6 µM | NCI-H460 50.8 µM | HCC 2998 31 µM | HL-60 14.7 µM | A549 46.8 µM | NCI-H23 52.4 µM | CCRF-CEM 44 µM | T47D 15.8 µM | SN12C 47.6 µM | ACHN 35.2 µM | EKVX 5.81 µM | Hs-578T 35.4 µM | KM12 36.9 µM | MDA-N 52.5 µM | 786-0 > 10 µM
